How the values were obtained:
Settings in all cases: 72 h
[1] = tested on: HepG2; test: relative viability EC50 (midpoint between 100% and the lowest measured viability); higher = less toxic
[2] = tested on: Vero E6; test: as above
[3] = tested on: U2OS; test: as above
[4] = tested on: Calu-3; test: as above
[5] = tested on: Caco-2; test: cell viability relative to DMSO; higher = less toxic
[6] = tested on: HepG2; test: as above
[7] = tested on: Vero E6; test: as above
[8] = tested on: U2OS; test: as above
[9] = tested on: Calu-3; test: as above
[10] = tested on: Caco-2; test: drug sensitivity score (DSS) for viability; higher = more toxic; extreme values may be limits of the assay
[11] = tested on: HepG2; test: as above
[12] = tested on: Vero E6; test: as above
[13] = tested on: U2OS; test: as above
[14] = tested on: Calu-3; test: as above
[15] = tested on: Caco-2; test: relative viability EC50 (midpoint between 100% and the lowest measured viability); higher = less toxic

Structure (SMILES) | relative viability EC50 [1] [µM] | relative viability EC50 [2] [µM] | relative viability EC50 [3] [µM] | relative viability EC50 [4] [µM] | cell viability ([5]; 1 nM) [%] | cell viability ([5]; 10 nM) [%] | cell viability ([5]; 100 nM) [%] | cell viability ([5]; 1000 nM) [%] | cell viability ([5]; 10000 nM) [%] | cell viability ([6]; 1 nM) [%] | cell viability ([6]; 10 nM) [%] | cell viability ([6]; 100 nM) [%] | cell viability ([6]; 1000 nM) [%] | cell viability ([6]; 10000 nM) [%] | cell viability ([7]; 1 nM) [%] | cell viability ([7]; 10 nM) [%] | cell viability ([7]; 100 nM) [%] | cell viability ([7]; 1000 nM) [%] | cell viability ([7]; 10000 nM) [%] | cell viability ([8]; 1 nM) [%] | cell viability ([8]; 10 nM) [%] | cell viability ([8]; 100 nM) [%] | cell viability ([8]; 1000 nM) [%] | cell viability ([8]; 10000 nM) [%] | cell viability ([9]; 1 nM) [%] | cell viability ([9]; 10 nM) [%] | cell viability ([9]; 100 nM) [%] | cell viability ([9]; 1000 nM) [%] | cell viability ([9]; 10000 nM) [%] | drug sensitivity score [10] | drug sensitivity score [11] | drug sensitivity score [12] | drug sensitivity score [13] | drug sensitivity score [14] | relative viability EC50 [15] [µM]
CC(C)c1cc(C(C)C)c(CC(=O)NS(=O)(=O)Oc2c(C(C)C)cccc2C(C)C)c(C(C)C)c1 [avasimibe] | > 10 | > 10 | > 10 | > 10 | 90.3 | 96.3 | 91 | 106 | 72.3 | 102 | 108 | 106 | 97.6 | 79.4 | 100 | 94.8 | 93.2 | 94.4 | 81 | 97.6 | 98.7 | 95.4 | 99.7 | 92.3 | 92.2 | 104 | 99.1 | 98.8 | 102 | 0.8 | 1 | 0.6 | 0 | 0 | –
CCC1=C[C@@H]2CN3CCc4c([nH]c5ccccc45)[C@@](C(=O)OC)(C2)[C@@H]13 [catharanthine] | – | > 10 | > 10 | > 10 | 93.7 | 92.6 | 95.9 | 103 | 91.9 | – | – | – | – | – | 103 | 93.4 | 98.4 | 101 | 110 | 92.3 | 100 | 95.7 | 97.1 | 98.4 | 98.5 | 107 | 98.4 | 90.9 | 101 | 0 | – | 0 | 0 | 0 | > 10
CCC(=O)O[C@]1(C(=O)CCl)[C@@H](C)C[C@H]2[C@@H]3CCC4=CC(=O)C=C[C@]4(C)[C@@]3(F)[C@@H](O)C[C@@]21C [clobetasol-propionate] | > 10 | > 10 | > 10 | > 10 | – | – | – | – | – | 107 | 105 | 94.5 | 99.4 | 77.8 | 99.6 | 96.5 | 107 | 93.4 | 95.2 | 95.7 | 95.7 | 93.1 | 90.7 | 91.2 | 91.5 | 96 | 82.2 | 94 | 89.7 | – | 0.8 | 0 | 0 | 0 | –
C[C@]12CC[C@H](O)CC1=CC[C@@H]1[C@@H]2CC[C@]2(C)C(n3cnc4ccccc43)=CC[C@@H]12 [galeterone] | > 10 | – | > 10 | > 10 | 95.6 | 102 | 89.1 | 88.3 | 45.9 | 97.8 | 102 | 97.5 | 99.3 | 77.4 | 100 | 99 | 102 | 99.2 | 74.5 | 96.4 | 102 | 93.4 | 95.1 | 92.9 | 91.9 | 95 | 85.5 | 99.6 | 90.2 | 4.6 | 0.9 | 1.1 | 0 | 0 | 1.72
N[C@@H](CCC(=O)N[C@@H](CS)C(=O)NCC(=O)O)C(=O)O [glutathione] | > 10 | – | > 10 | > 10 | 92.7 | 90.7 | 105 | 93.6 | 99.4 | 108 | 106 | 97.3 | 99.3 | 104 | – | – | – | – | – | 95.3 | 97.3 | 99.5 | 96.6 | 102 | 98.1 | 93.2 | 98.8 | 101 | 99.7 | 0 | 0 | – | 0 | 0 | > 10
Clc1ccc(C(Cn2ccnc2)OCc2c(Cl)cccc2Cl)c(Cl)c1 (stereo unspecified) [isoconazole] | – | > 10 | > 10 | > 10 | 97 | 96.4 | 96.8 | 100 | 71.7 | – | – | – | – | – | 102 | 101 | 97.7 | 95.7 | 101 | 104 | 103 | 122 | 110 | 92 | 95.8 | 97.9 | 105 | 98.5 | 84.2 | 1.2 | – | 0 | 0 | 0.4 | –
CO/N=C1\C[C@]2(C[C@@H]3C[C@@H](C/C=C(\C)C[C@@H](C)/C=C/C=C4\CO[C@@H]5[C@H](O)C(C)=C[C@@H](C(=O)O3)[C@]45O)O2)O[C@H](/C(C)=C/C(C)C)[C@H]1C [moxidectin] | > 10 | > 10 | > 10 | > 10 | 95.3 | 94 | 102 | 88.2 | 62.1 | 101 | 106 | 102 | 105 | 96.7 | 96.4 | 96.9 | 88.7 | 96.4 | 101 | 103 | 92.1 | 93.5 | 94.6 | 94.7 | 90.7 | 97.3 | 94.2 | 103 | 89.8 | 3.6 | 0 | 0 | 0 | 0 | –
C#C[C@]1(OC(C)=O)CC[C@H]2[C@@H]3CCC4=CC(=O)CC[C@@H]4[C@H]3CC[C@@]21C [norethindrone-acetate] | – | > 10 | > 10 | > 10 | 91.8 | 97.1 | 84.7 | 95 | 70.4 | – | – | – | – | – | 104 | 108 | 110 | 90.5 | 98.1 | 100 | 99.6 | 98.5 | 98.5 | 94.9 | 93.2 | 82.9 | 90.8 | 104 | 95.6 | 2.3 | – | 0 | 0 | 0 | –
O/N=C/c1cc[n+](COC[n+]2ccc(/C=N/O)cc2)cc1 [obidoxime] | – | – | > 10 | > 10 | 94.5 | 99.4 | 94.4 | 94.7 | 94.6 | – | – | – | – | – | – | – | – | – | – | 97.2 | 101 | 94.9 | 95.2 | 102 | 102 | 91.8 | 100 | 84.1 | 106 | 0 | – | – | 0 | 0 | > 10
Cc1cn2nc([C@@H]3CCCCN3C(=O)c3cc(Cl)ccc3NS(C)(=O)=O)cc2nc1N1CC[C@H](N)C1 [presatovir] | > 10 | > 10 | > 10 | > 10 | 93.8 | 95.2 | 102 | 96.2 | 53.9 | 98.8 | 110 | 104 | 106 | 105 | 98.8 | 103 | 94.4 | 96.8 | 102 | 101 | 97 | 100 | 98.3 | 76.6 | 102 | 107 | 102 | 94 | 98.5 | 3 | 0 | 0 | 1.1 | 0 | –
CC(C)(C)Sc1c(CC(C)(C)C(=O)O)n(Cc2ccc(Cl)cc2)c2ccc(OCc3ccc4ccccc4n3)cc12 [quiflapon] | > 10 | – | > 10 | > 10 | 104 | 102 | 97 | 96 | 102 | 105 | 95.6 | 96.8 | 98.3 | 104 | – | – | – | – | – | 102 | 108 | 104 | 99.6 | 109 | 91.5 | 97.3 | 98.7 | 102 | 110 | 0 | 0 | – | 0 | 0 | > 10
O=C(/C=C/c1ccccc1)NC(NC(=S)Nc1cccc2cccnc12)C(Cl)(Cl)Cl (stereo unspecified) [salubrinal] | > 10 | – | > 10 | > 10 | 126 | 102 | 96.7 | 103 | 80.1 | 107 | 111 | 99.1 | 101 | 108 | – | – | – | – | – | 98.3 | 107 | 101 | 102 | 91.1 | 99.4 | 100 | 97.6 | 109 | 87.1 | 0.4 | 0 | – | 0 | 0 | > 10
O=C1c2ccc(Nc3ccc(F)cc3F)cc2CCc2ccc(OC[C@H](O)CO)cc21 [skepinone-L] | > 10 | > 10 | > 10 | > 10 | 103 | 84.1 | 89.2 | 91.7 | 73.4 | 102 | 109 | 98.8 | 101 | 75.2 | 103 | 103 | 86.8 | 89.4 | 80.3 | 96.5 | 91.8 | 91.4 | 90.2 | 89.5 | 97.2 | 94 | 96.2 | 101 | 94.7 | 2.5 | 0.8 | 1.9 | 0.1 | 0 | –
Cc1nnc(NS(=O)(=O)c2ccc(N)cc2)s1 [sulfamethizole] | > 10 | – | > 10 | > 10 | 88.1 | 85.7 | 98.9 | 93.6 | 99 | 102 | 111 | 98 | 108 | 90.4 | – | – | – | – | – | 103 | 98.1 | 103 | 99.2 | 99.2 | 96.3 | 98.4 | 96.7 | 99.2 | 105 | 0 | 0 | – | 0 | 0 | > 10
Cc1cn([C@H]2C[C@H](N=[N+]=[N-])[C@@H](CO)O2)c(=O)[nH]c1=O [zidovudine] | > 10 | – | > 10 | > 10 | 94.9 | 92.6 | 105 | 98 | 98 | 101 | 109 | 99 | 94.6 | 104 | – | – | – | – | – | 103 | 104 | 95.2 | 103 | 94.3 | 107 | 89.6 | 101 | 98.9 | 103 | 0 | 0 | – | 0 | 0 | > 10

— the supplement of paper PMC13380429
